Laboratory results reported in US20040057926A1, “Modulation of the immune response through the manipulation of arginine levels” (LSU Medical Center, priority 2002, published 2004).

Key:
Jurkat cells = test: Co-culture in transwells of stimulated PM and Jurkat cells, CD3ζ expression; assay type: cell-based; conditions: for CD3ζ in Jurkat cells co-cultured with PM stimulated with IL-4+IL-13: NOHA 100 μM, Nor-NOHA 50 μM, L-Arg 2 mM, L-NIL 5 μg/ml, catalase 200 U/ml, L-NMMA, L-NNA, L-NAME 1 mM; for induction of CD3ζ down-regulation by excess of the substance: data not shown
Experimental: PM were cultured in 6 well plates in RPMI containing 150 μM L-Arg and stimulated with murine rIL-4 (50 U/ml) and murine rIL-13 (50 ng/ml), or murine rIFN-γ (100 U/ml) for 24 hours. Then 1×10^6 normal T-cells stimulated with anti-CD3 plus anti-CD28 or 1×10^6 Jurkat cells, were cultured in the top chamber of a transwell system having 0.4 μm pores (Falcon, Franklin lakes, N.J.). CD3ζ expression was measured in Jurkat cells or T lymphocytes at different time points. PM were detached using trypsin/EDTA and the expression of protein and RNA for CAT-2B, ASE I, ASE II and iNOS was tested by western blot and northern blot respectively. Cytoplasmic extracts from PM were used to test ASE activity. Supernatants from stimulated PM were used to measure NO production using the Griess reagent method (Molecular Probes, Eugene, Oreg.). In addition, the extra-cellular concentration of L-Arg was tested in supernatants by HPLC (Dr. Gu Yao Wu laboratory, University of Texas) as described previously. O'Quinn, P. R., D. A. Knabe, and G. Wu. 2002. Arginine catabolism in lactating porcine mammary tissue. J Anim Sci. 80:467-474.
Flow cytometry analysis was performed as previously described. Taheri, F., J. B. Ochoa, Z. Faghiri, K. Culotta, H. J. Park, M. S. Lan, A. H. Zea, and A. C. Ochoa. 2001. L-Arginine regulates the expression of the T-cell receptor zeta chain (CD3zeta) in Jurkat cells. Clin Cancer Res 7:958s-965s. Briefly, 5×10^5 Jurkat cells or T lymphocytes were washed once with Dulbecco phosphate-buffered saline 1× (D-PBS) and resuspended in 200 μL of D-PBS containing 1 μg of anti-CD3ε or isotype control. Cells were incubated for 15 min at 4° C., washed with D-PBS and resuspended in 200 μl D-PBS containing 500 μg/ml of digitonin plus 1 μg of anti-CD3ζ or 1 μg of isotypic control. Cells were incubated for 8 minutes after which they were washed and resuspended in 400 μl of D-PBS. Fluorescence acquisition and analysis were done using a Coulter-EPICS XL flow cytometer (Beckman-Coulter) with a 488 nm argon laser. The data were expressed as mean channel fluorescence intensity (MFI).

T-cells = test: Lysosome and proteasome inhibition, CD3ζ expression in T-cells; assay type: cell-based, human; conditions: lactacystin 2.5 μM, bafylomycin A1 1 μM
Experimental: To inhibit lysosome function 2×10^6 T-cells cultured in the presence or absence of L-arginine, were treated with 1 μM bafylomycin A1 (Calbiochem, San Diego, Calif.) or 1 μM folimycin (Calbiochem) during the course of the experiments begining at time 0 (start of the cultures), 24, 48 and 72 hours after stimulation. To inhibit proteasome activity 2.5 μM lactacystin (Calbiochem) was added to the cultures at the same time points. DMSO was used as a control vehicle in all the cases. The CD3ζ expression was tested by flow cytometry 24 hours after the addition of the inhibitors.

[1] = assay type: cell-based; conditions: within 24 h, trypan blue exclusion
Experimental: To further explore possible mechanisms leading to a decreased T-cell response induced by the H. pylori sonicate, various aspects of T-cell signal transduction were studied. […] The expression of the CD3ζ chain, the main signaling element of the T-cell antigen receptor, were then tested. […] Harris, P. R., et al. J. Infect. Dis. 178, pp. 1516-1520 (1998); Zhang, Q. B., et al. Gut 38, pp. 841-845 (1996). Therefore some of these H. pylori proteins were tested to determine whether they could reduce CD3ζ expression. The recombinant proteins CagA, VacA, urease A (UreA), urease B (UreB) were titrated up to 10 μg/ml, a concentration where they caused cell death within 24 h as determined by trypan blue exclusion. […] Harris, P. R., et al. J. Infect. Dis. 178, pp. 1516-1520 (1998); Pai, R., et al. Biochem. Biophys. Res. Commun. 262, pp. 245-250 (1999); Rudnicka, W., et al. J. Physiol Pharmacol. 49, pp. 111-119 (1998); Tanahashi, T., et al. Infect. Immun. 68, pp. 664-671 (2000).

COC(=O)[C@@H](N)CCCNC(=N)N[N+](=O)[O-] [L-NAME, N-NO2-L-Arg-OMe]
CD3ζ in Jurkat cells co-cultured with PM stimulated with IL-4+IL-13 (Jurkat cells): did not prevent CD3ζ decrease

CC(=N)NCCCC[C@H](N)C(=O)O [L-NIL]
CD3ζ in Jurkat cells co-cultured with PM stimulated with IL-4+IL-13 (Jurkat cells): did not prevent CD3ζ down-regulation

N=C(NCCC[C@H](N)C(=O)O)N[N+](=O)[O-] [L-NNA, N-NO2-L-Arg]
CD3ζ in Jurkat cells co-cultured with PM stimulated with IL-4+IL-13 (Jurkat cells): did not prevent CD3ζ decrease

NCCC[C@H](N)C(=O)O [L-ornithine]
induction of CD3ζ down-regulation by excess of the substance (Jurkat cells): did not induce CD3ζ down-regulation

CNC(=N)NCCC[C@H](N)C(=O)O [NMMA, L-mono-methyl-L-Arg]
CD3ζ in Jurkat cells co-cultured with PM stimulated with IL-4+IL-13 (Jurkat cells): partially prevented the CD3ζ down-regulation

CO/C1=C\C(C)=C\[C@@H](C)[C@@H](O)[C@@H](C)C/C(C)=C/C=C/[C@H](OC)[C@@H]([C@@H](C)[C@@H](O)[C@H](C)[C@@]2(O)C[C@@H](O)[C@H](C)[C@@H](C(C)C)O2)OC1=O [bafilomicyn, bafylomycin A1]
decrease of CD3ζ upon stimulation with proteosome or lysosome inhibitor (T-cells): failed to prevent the decrease of CD3ζ upon stimulation

CC(=O)N[C@@H](CSC(=O)[C@]1([C@@H](O)C(C)C)NC(=O)[C@H](C)[C@@H]1O)C(=O)O [lactacystin]
decrease of CD3ζ upon stimulation with proteosome or lysosome inhibitor (T-cells): failed to prevent the decrease of CD3ζ upon stimulation

NC(N)=O [urea]
concentration where they caused cell death [1]: 10000 ng/mL
induction of CD3ζ down-regulation by excess of the substance (Jurkat cells): did not induce CD3ζ down-regulation

Catalase
CD3ζ in Jurkat cells co-cultured with PM stimulated with IL-4+IL-13 (Jurkat cells): did not prevent the decrease of CD3ζ

UreB: recombinant H. pylori urease B
concentration where they caused cell death [1]: 10000 ng/mL

B1: CagA: recombinant H. pylori protein CagA (protein, UniProt P55980 1-1186, looked up)
Cytotoxicity-associated …: MTNETIDQTRTPDQTQSQTAFDPQQFINNLQVAFIKVDNVVASFDPDQKPIVDKNDRDNRQAFDGISQLREEYSNKAIKNPTKKNQYFSDFIDKSNDLINKDNLIDVESSTKSFQKFGDQRYQIFTSWVSHQKDPSKINTRSIRNFMENIIQPPIPDDKEKAEFLKSAKQSFAGIIIGNQIRTDQKFMGVFDESLKERQEAEKNGGPTGGDWLDIFLSFIFNKKQSSDVKEAINQEPVPHVQPDIATTTTDIQGLPPEARDLLDERGNFSKFTLGDMEMLDVEGVADIDPNYKFNQLLIHNNALSSVLMGSHNGIEPEKVSLLYAGNGGFGDKHDWNATVGYKDQQGNNVATLINVHMKNGSGLVIAGGEKGINNPSFYLYKEDQLTGSQRALSQEEIRNKVDFMEFLAQNNTKLDNLSEKEKEKFQNEIEDFQKDSKAYLDALGNDRIAFVSKKDTKHSALITEFNNGDLSYTLKDYGKKADKALDREKNVTLQGSLKHDGVMFVDYSNFKYTNASKNPNKGVGATNGVSHLEAGFNKVAVFNLPDLNNLAITSFVRRNLENKLTAKGLSLQEANKLIKDFLSSNKELAGKALNFNKAVAEAKSTGNYDEVKKAQKDLEKSLRKREHLEKEVEKKLESKSGNKNKMEAKAQANSQKDEIFALINKEANRDARAIAYTQNLKGIKRELSDKLEKISKDLKDFSKSFDEFKNGKNKDFSKAEETLKALKGSVKDLGINPEWISKVENLNAALNEFKNGKNKDFSKVTQAKSDLENSVKDVIINQKVTDKVDNLNQAVSVAKAMGDFSRVEQVLADLKNFSKEQLAQQAQKNEDFNTGKNSELYQSVKNSVNKTLVGNGLSGIEATALAKNFSDIKKELNEKFKNFNNNNNGLKNSTEPIYAKVNKKKTGQVASPEEPIYTQVAKKVNAKIDRLNQIASGLGGVGQAAGFPLKRHDKVDDLSKVGLSASPEPIYATIDDLGGPFPLKRHDKVDDLSKVGRSRNQELAQKIDNLNQAVSEAKAGFFGNLEQTIDKLKDSTKKNVMNLYVESAKKVPASLSAKLDNYAINSHTRINSNIQNGAINEKATGMLTQKNPEWLKLVNDKIVAHNVGSVSLSEYDKIGFNQKNMKDYSDSFKFSTKLNNAVKDIKSGFTHFLANAFSTGYYCLARENAEHGIKNVNTKGGFQKS
concentration where they caused cell death [1]: 10000 ng/mL
